This passage reports dTm results from PMC12136037, “Type II kinase inhibitors that target Parkinson’s disease–associated LRRK2” (Science Advances, 2025).

What all share (test): DSF 100 kinase selectivity screen;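 further: compound tested at 20 µM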
Type in all cases: binding

In experiment [1] the target is T1, ~100 representative kinases (Homo sapiens, UniProt P52564).
T1 construct: Recombinant protein kinase domains with a concentration of 2 μM
T1 sequence (P52564 1-334): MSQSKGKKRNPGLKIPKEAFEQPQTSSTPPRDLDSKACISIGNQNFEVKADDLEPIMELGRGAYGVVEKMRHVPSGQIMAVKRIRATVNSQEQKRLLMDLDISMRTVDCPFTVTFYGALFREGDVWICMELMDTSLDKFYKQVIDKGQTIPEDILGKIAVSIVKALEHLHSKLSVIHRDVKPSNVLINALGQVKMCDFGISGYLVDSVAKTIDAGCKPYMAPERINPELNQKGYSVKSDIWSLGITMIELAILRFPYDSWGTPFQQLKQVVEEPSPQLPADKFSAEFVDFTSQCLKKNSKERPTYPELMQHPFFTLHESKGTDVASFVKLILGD
Particulars: protein MAP2K6; average of three replicates. An outline of the steps:
(§1)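 Each kinase domain, at 2 μM, is mixed with 20 μM test compound and SYPRO Orange in Hepes (20 mM, pH 7.5) with 500 mM NaCl. Temperature is then raised at 3°C/min and fluorescence-monitored unfolding yields the melting temperature change, ΔTm in degrees Celsius.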

Experiment [2] deals with T2, ~100 representative kinases (Homo sapiens, UniProt Q9H2X6).
T2 construct: Recombinant protein kinase domains with a concentration of 2 μM
T2 sequence (Q9H2X6 whole entry, the tested form may be a part): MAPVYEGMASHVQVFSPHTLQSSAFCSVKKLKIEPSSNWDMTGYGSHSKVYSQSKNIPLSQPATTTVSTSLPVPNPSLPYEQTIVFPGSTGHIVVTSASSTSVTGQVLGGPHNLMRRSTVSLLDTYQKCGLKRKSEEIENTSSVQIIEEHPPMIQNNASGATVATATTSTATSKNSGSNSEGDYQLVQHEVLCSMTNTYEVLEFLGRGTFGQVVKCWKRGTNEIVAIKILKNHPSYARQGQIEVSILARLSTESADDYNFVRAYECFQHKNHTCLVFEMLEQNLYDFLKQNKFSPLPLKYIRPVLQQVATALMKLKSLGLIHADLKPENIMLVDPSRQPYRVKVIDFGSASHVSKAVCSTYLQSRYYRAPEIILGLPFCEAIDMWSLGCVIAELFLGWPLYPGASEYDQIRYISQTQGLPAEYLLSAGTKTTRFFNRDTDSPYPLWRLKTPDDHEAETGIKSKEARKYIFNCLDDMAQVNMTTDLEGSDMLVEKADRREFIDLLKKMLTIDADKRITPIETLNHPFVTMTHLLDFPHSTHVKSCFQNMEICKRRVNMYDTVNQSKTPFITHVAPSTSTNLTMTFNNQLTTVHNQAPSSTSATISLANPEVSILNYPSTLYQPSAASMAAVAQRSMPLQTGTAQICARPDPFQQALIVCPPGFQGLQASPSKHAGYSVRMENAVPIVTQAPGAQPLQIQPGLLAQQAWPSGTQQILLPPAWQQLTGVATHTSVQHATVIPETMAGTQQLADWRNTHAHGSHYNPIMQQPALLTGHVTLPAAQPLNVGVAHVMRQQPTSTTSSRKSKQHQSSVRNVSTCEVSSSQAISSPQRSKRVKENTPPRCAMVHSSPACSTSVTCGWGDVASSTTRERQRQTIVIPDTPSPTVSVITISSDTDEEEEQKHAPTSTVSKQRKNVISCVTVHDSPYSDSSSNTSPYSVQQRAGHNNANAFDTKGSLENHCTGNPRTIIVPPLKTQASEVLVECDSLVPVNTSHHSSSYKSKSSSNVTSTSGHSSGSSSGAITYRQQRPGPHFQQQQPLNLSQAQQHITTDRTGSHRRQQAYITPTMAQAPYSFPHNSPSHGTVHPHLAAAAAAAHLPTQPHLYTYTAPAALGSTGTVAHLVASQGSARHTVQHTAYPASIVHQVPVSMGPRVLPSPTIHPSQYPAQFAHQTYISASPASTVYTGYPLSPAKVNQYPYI
Particulars: protein HIPK2; average of three replicates. The essentials:
as §1

The target of experiment [3] is T3, ~100 representative kinases (Homo sapiens, UniProt P21802).
T3 construct: Recombinant protein kinase domains with a concentration of 2 μM
T3 sequence (P21802 22-821): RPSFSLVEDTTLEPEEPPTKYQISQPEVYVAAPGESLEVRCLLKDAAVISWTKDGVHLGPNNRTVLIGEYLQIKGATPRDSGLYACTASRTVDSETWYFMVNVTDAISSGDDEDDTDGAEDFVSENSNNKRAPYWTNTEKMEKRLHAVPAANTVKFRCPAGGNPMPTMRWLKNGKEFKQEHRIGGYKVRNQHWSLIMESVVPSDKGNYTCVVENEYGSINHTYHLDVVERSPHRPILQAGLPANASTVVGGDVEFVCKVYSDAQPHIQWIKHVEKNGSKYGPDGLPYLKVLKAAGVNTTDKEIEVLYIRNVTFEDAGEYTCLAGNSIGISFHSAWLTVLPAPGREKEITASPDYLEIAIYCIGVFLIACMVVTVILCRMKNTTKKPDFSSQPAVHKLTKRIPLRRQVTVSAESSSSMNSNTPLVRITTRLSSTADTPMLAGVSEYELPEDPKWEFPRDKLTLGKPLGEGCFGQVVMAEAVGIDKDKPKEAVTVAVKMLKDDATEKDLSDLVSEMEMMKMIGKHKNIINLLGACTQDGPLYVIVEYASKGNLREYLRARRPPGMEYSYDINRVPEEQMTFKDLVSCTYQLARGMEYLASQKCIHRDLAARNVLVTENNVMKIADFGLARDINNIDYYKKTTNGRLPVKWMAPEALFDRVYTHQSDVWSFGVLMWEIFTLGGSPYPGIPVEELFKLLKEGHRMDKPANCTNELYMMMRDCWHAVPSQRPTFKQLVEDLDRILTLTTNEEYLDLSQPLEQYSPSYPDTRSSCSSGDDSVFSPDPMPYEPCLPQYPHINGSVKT
Particulars: protein FGFR2; average of three replicates. An outline of the steps: as §1

The target in experiment [4] is T4, ~100 representative kinases (Homo sapiens, UniProt P15056).
T4 construct: Recombinant protein kinase domains with a concentration of 2 μM
T4 sequence (P15056 whole entry, the tested form may be a part): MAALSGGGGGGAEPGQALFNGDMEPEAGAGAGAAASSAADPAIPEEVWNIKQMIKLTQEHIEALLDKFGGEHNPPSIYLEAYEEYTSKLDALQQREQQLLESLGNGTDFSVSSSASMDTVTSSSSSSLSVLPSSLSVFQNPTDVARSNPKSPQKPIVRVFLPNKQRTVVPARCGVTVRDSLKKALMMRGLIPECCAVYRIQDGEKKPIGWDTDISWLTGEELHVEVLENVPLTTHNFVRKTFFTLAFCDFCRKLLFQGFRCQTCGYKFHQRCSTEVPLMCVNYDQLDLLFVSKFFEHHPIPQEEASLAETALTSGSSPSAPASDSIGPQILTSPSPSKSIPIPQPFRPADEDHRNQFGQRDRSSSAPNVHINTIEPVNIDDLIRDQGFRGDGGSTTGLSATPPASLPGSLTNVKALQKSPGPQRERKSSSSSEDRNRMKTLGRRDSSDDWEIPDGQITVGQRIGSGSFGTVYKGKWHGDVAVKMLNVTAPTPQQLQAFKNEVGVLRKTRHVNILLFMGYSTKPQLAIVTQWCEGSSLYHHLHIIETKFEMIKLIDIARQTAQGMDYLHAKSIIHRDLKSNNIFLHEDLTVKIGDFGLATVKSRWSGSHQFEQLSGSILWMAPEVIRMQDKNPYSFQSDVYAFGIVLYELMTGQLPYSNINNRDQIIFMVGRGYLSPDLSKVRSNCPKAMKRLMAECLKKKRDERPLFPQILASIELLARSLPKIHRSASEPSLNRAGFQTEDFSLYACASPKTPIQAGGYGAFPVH
The conditions noted are these: Protein BRAF; average of three replicates. An outline of the steps: as §1

In experiment [5] the target is T5, ~100 representative kinases (Homo sapiens, UniProt P24941).
T5 construct: Recombinant protein kinase domains with a concentration of 2 μM
The conditions noted are these: Protein CDK2; average of three replicates. An outline of the steps: as §1

Experiment [6] concerns the target T6, ~100 representative kinases (Homo sapiens, UniProt P54756).
T6 construct: Recombinant protein kinase domains with a concentration of 2 μM
The conditions noted are these: Protein EPHA5; average of three replicates. An outline of the steps: as §1

Experiment [7] deals with T7, ~100 representative kinases (Homo sapiens, UniProt P49674).
T7 construct: Recombinant protein kinase domains with a concentration of 2 μM
T7 sequence (P49674 whole entry, the tested form may be a part): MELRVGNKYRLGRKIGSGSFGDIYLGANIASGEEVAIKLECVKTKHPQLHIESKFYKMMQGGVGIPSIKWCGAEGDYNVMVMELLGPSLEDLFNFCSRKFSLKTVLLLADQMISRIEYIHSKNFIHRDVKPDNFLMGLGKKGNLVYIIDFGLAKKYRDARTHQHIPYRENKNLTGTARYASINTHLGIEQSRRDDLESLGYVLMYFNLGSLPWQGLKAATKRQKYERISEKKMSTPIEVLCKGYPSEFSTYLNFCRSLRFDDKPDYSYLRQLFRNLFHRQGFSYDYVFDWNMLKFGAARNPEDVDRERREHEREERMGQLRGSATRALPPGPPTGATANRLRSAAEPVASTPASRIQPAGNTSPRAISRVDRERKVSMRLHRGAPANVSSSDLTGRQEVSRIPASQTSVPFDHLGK
Particulars: Protein CSNK1E; average of three replicates. The essentials: as §1

In experiment [8] the target is T8, ~100 representative kinases (Homo sapiens, UniProt O15075).
T8 construct: Recombinant protein kinase domains with a concentration of 2 μM
T8 sequence (O15075 whole entry, the tested form may be a part): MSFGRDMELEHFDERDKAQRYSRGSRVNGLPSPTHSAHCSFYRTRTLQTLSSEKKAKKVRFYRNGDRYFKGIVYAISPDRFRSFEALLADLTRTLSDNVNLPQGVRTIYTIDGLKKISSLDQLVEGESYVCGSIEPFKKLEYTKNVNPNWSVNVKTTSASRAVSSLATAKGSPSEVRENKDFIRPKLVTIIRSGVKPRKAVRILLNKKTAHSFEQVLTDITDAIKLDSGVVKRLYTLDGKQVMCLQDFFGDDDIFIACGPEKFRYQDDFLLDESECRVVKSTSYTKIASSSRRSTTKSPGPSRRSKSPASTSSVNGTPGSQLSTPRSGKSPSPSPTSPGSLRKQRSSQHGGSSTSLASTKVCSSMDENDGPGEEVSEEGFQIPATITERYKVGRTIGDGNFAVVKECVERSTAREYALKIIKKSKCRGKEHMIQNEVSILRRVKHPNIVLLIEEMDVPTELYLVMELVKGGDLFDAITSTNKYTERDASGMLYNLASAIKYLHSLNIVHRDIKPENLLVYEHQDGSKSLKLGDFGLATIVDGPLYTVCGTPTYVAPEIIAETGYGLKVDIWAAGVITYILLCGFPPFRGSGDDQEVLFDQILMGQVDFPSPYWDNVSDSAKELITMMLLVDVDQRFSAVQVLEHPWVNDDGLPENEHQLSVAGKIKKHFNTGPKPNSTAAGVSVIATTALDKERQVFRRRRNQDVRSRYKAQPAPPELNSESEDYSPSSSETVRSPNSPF
Particulars: Protein DCAMKL1; average of three replicates. An outline of the steps:
as §1

For experiment [9], the target named is T9, ~100 representative kinases (Homo sapiens, UniProt Q15375).
T9 construct: Recombinant protein kinase domains with a concentration of 2 μM
T9 sequence (Q15375 28-998): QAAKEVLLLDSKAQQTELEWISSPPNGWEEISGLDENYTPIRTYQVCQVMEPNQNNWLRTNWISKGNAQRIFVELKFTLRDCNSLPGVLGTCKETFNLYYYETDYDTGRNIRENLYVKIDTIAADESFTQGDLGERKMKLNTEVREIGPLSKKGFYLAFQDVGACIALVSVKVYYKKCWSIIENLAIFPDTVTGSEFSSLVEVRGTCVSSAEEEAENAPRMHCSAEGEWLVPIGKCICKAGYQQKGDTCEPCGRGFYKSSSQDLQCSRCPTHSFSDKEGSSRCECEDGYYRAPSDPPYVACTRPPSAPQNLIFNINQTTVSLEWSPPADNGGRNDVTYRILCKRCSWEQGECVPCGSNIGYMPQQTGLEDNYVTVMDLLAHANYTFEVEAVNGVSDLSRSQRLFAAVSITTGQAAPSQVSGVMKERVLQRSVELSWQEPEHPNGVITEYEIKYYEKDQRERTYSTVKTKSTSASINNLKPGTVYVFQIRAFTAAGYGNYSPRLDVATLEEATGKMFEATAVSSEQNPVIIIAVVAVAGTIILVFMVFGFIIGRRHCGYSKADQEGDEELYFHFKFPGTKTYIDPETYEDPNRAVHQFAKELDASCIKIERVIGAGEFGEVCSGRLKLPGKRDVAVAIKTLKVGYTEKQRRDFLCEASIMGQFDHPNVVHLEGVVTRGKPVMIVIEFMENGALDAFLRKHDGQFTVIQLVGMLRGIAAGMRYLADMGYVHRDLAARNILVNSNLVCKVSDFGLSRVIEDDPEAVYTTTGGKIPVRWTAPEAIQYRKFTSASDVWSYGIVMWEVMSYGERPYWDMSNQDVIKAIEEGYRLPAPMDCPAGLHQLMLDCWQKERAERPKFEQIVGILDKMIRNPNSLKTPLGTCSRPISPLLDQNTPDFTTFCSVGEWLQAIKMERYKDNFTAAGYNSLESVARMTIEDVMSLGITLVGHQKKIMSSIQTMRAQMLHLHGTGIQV
The conditions noted are these: Protein EPHA7; average of three replicates. An outline of the steps:
as §1

Experiment [10] has as its target T10, ~100 representative kinases (Homo sapiens, UniProt P49761).
T10 construct: Recombinant protein kinase domains with a concentration of 2 μM
The conditions noted are these: Protein CLK3; average of three replicates. An outline of the steps: as §1

In experiment [11] the target is T11, ~100 representative kinases (Homo sapiens, UniProt O14733).
T11 construct: Recombinant protein kinase domains with a concentration of 2 μM
T11 sequence (O14733 1-419): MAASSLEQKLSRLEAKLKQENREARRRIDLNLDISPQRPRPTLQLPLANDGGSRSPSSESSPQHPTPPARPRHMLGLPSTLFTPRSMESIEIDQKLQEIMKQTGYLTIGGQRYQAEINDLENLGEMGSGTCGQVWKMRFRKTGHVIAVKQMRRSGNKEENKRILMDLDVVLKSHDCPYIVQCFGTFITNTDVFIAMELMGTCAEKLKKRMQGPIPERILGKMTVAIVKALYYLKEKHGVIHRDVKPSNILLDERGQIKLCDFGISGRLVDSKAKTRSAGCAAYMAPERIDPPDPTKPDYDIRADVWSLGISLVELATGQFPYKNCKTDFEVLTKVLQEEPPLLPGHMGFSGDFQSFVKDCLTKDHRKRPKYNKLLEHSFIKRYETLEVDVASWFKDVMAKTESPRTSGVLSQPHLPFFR
The conditions noted are these: protein MAP2K7; average of three replicates. The essentials:
as §1

For experiment [12], the target named is T12, ~100 representative kinases (Homo sapiens, UniProt Q99640).
T12 construct: Recombinant protein kinase domains with a concentration of 2 μM
T12 sequence (Q99640 1-499): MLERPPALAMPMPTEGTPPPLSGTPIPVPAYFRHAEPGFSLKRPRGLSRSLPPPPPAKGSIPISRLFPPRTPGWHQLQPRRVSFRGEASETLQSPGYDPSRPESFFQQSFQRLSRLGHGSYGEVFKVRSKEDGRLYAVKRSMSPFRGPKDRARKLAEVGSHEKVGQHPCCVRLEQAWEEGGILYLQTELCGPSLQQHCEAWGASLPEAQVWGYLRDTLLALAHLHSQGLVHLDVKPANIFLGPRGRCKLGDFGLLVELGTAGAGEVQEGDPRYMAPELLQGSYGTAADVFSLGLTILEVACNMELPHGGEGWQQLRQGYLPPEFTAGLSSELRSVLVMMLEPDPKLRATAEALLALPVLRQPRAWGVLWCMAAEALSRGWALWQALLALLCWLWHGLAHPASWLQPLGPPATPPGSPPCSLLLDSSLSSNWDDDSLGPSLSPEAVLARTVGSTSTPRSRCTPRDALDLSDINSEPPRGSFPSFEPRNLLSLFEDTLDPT
Particulars: protein PKMYT1; average of three replicates. An outline of the steps:
as §1

For `COc1cc(NC(=O)C2(C(=O)Nc3cccc(-c4c[nH]c5ncnc(N6CCOCC6)c45)c3)CC2)ccc1F` [Compound 21], the dTm in [1] turned out to be 3.07 K; in experiment [2] it was 9.11 K; in experiment [3], 2.99 K; in [4] it was 10.93 K; in [5], 4.67 K; in experiment [6], 0.44 K. Further, the dTm in experiment [7] is given as 5.78 K; in experiment [8], 1.25 K; in experiment [9] it was -1.98 K; in experiment [10], 3.11 K; in [11], 4.61 K; in experiment [12], -0.64 K.
For `CC(C)(C)c1cccc(NC(=O)C2(C(=O)Nc3cccc(-c4c[nH]c5ncnc(N6CCOCC6)c45)c3)CC2)c1` [Compound 22], the dTm in experiment [1] is listed as 1.77 K; in [2], 3.44 K; in experiment [3] it was 3.68 K; in [4], 15.10 K; in experiment [5] it was 5.91 K; in experiment [6], 2.41 K. In addition, the dTm in experiment [7] is listed as 6.66 K; in [8], 3.75 K; in experiment [9], 2.40 K; in experiment [10] it was 4.17 K; in [11], 3.77 K; in experiment [12] it was -2.18 K.
In the case of `O=C(Nc1cccc(-c2c[nH]c3ncnc(N4CCOCC4)c23)c1)C1(C(=O)Nc2ccc(F)cc2F)CC1` [Compound 23], the dTm in [1] amounted to 1.78 K; in [2], 6.30 K; in experiment [3], 2.08 K; in [4], 9.00 K; in [5] it was 3.56 K; in experiment [6] it was 1.86 K. Moreover, the dTm in experiment [7] is recorded as 3.09 K; in [8] it was -0.73 K; in [9], -2.29 K; in [10], 1.58 K; in experiment [11], 3.10 K; in experiment [12], -0.59 K.
On to `Cc1cc(F)ccc1NC(=O)C1(C(=O)Nc2cccc(-c3c[nH]c4ncnc(N5CCOCC5)c34)c2)CC1` [Compound 24], for which the dTm is recorded as 3.14 K in experiment [1]; 4.12 K in experiment [2]; 2.08 K in experiment [3]; 8.44 K in experiment [4]; 3.87 K in [5]; 0.97 K in experiment [6]. The dTm in experiment [7] is given as 3.91 K; in experiment [8], -1.61 K; in [9], -2.57 K; in [10] it was 0.69 K; in experiment [11], 3.14 K; in [12], -0.26 K.
Turning to `O=C(Nc1cccc(-c2c[nH]c3ncnc(N4CCOCC4)c23)c1)C1(C(=O)Nc2cc(Br)c(F)cc2F)CC1` [Compound 25], the dTm in experiment [1] is on record as 3.34 K; in experiment [2], 1.71 K; in experiment [3], 3.32 K; in experiment [4], 11.56 K; in [5], 3.68 K; in experiment [6], 1.57 K. The dTm in experiment [7] is on record as 2.14 K; in experiment [8], 3.61 K; in experiment [9], 2.86 K; in experiment [10], 2.08 K; in [11], 3.02 K; in experiment [12], -1.04 K.
Regarding `O=C(Nc1cccc(-c2c[nH]c3ncnc(N4CCOCC4)c23)c1)C1(C(=O)Nc2ccc(F)c(Br)c2F)CC1` [Compound 26], the dTm amounted to 2.03 K in experiment [1]; 2.07 K in [2]; 3.74 K in experiment [3]; 9.02 K in [4]; 3.97 K in [5]; 1.29 K in [6]. Further, the dTm in [7] was 4.57 K; in experiment [8], 3.55 K; in experiment [9], 1.95 K; in experiment [10], 3.24 K; in experiment [11], 3.31 K; in experiment [12] it was -0.69 K.
With `O=C(Nc1cc(F)cc(Br)c1)C1(C(=O)Nc2cccc(-c3c[nH]c4ncnc(N5CCOCC5)c34)c2)CC1` [Compound 27], the dTm in experiment [1] is 2.66 K; in experiment [2] it was 1.50 K; in experiment [3], 2.02 K; in [4], 6.66 K; in experiment [5] it was 4.12 K; in experiment [6], 0.40 K. In addition, the dTm is 4.18 K in experiment [7]; 4.07 K in experiment [8]; 2.33 K in experiment [9]; 2.41 K in [10]; 3.41 K in experiment [11]; -2.72 K in experiment [12].
For the compound `CC(C)(C)c1cc(NC(=O)Nc2cccc(-c3c[nH]c4ncnc(N5CCOCC5)c34)c2)n(-c2ccc3ncccc3c2)n1` [Compound 28], the dTm came out at 1.76 K in experiment [1]; 9.47 K in experiment [2]; 10.62 K in [3]; 32.83 K in experiment [4]; 14.76 K in experiment [5]; 9.59 K in [6]. Besides, the dTm stood at 1.81 K in [7]; 3.53 K in experiment [8]; 1.92 K in [9]; 16.34 K in experiment [10]; 3.13 K in experiment [11]; 0.83 K in [12].
Take `Cc1ccc(-n2nc(C(C)(C)C)cc2NC(=O)Nc2cccc(-c3c[nH]c4ncnc(N5CCOCC5)c34)c2)cc1` [Compound 29]: the dTm in experiment [1] is on record as 2.48 K; in [2], 9.24 K; in [3], -0.19 K; in experiment [4], 37.18 K; in [5] it was 12.74 K; in experiment [6] it was 6.71 K. The dTm is on record as 0.48 K in [7]; 2.98 K in [8]; 2.68 K in experiment [9]; 14.57 K in [10]; 4.70 K in experiment [11]; -0.41 K in experiment [12].
Consider `Cc1ccc(-n2nc(C(C)(C)C)cc2NC(=O)Nc2cccc(-c3c[nH]c4nc(Cl)nc(N5CCOCC5)c34)c2)cc1` [Compound 30], for which the dTm is listed as 0.45 K in experiment [1]; 1.85 K in [2]; -0.31 K in experiment [3]; 18.85 K in experiment [4]; 1.78 K in experiment [5]; 0.15 K in [6]. For the same compound, the dTm in experiment [7] is given as -2.01 K; in experiment [8], 2.36 K; in experiment [9], 0.22 K; in experiment [10], 3.71 K; in experiment [11], 2.39 K; in [12] it was -0.62 K.
